Source: patent US11447481B2, “Microbiocidal oxadiazole derivatives” (SYNGENTA PARTICIPATIONS AG, priority 2017, dated 2022)

Columns and labels:
[1] = test system: Glomerella lagenarium (Colletotrichum lagenarium); test: Fungicidal activity against Glomerella lagenarium (Colletotrichum lagenarium) liquid culture / cucumber / preventative (anthracnose); format: cell-based; conditions: Colletotrichum orbiculare, liquid culture (PDB), growth inhibition measured photometrically 3-4 days after application, compared to untreated control
Procedure: Mycelia fragments or conidia suspensions of a fungus prepared either freshly from liquid cultures of the fungus or from cryogenic storage, are directly mixed into nutrient broth. DMSO solutions of the test compound (max. 10 mg/ml) are diluted with 0.025% Tween20 by a factor of 50 and 10 µl of this solution is pipetted into a microtiter plate (96-well format). The nutrient broth containing the fungal spores/mycelia fragments is then added to give an end concentration of the tested compound. The test plates are incubated in the dark at 24° C. and 96% relative humidity. The inhibition of fungal growth is determined photometrically after 2 to 7 days, depending on the pathosystem, and percent antifungal activity relative to the untreated check is calculated.
Conidia of the fungus from cryogenic storage are directly mixed into nutrient broth (PDB potato dextrose broth). After placing a (DMSO) solution of test compound into a microtiter plate (96-well format), the nutrient broth containing the fungal spores is added. The test plates are incubated at 24° C. and the inhibition of growth is measured photometrically 3-4 days after application.

[2] = test system: Puccinia recondita f. sp. tritici; test: Fungicidal activity against Puccinia recondita f. sp. tritici / wheat / leaf disc curative (brown rust); format: in vivo; conditions: foliar, 24 h, wheat leaf segments, curative (applied 1 day after inoculation), compared to untreated control
Procedure: (§1) Leaf disks or leaf segments of various plant species are cut from plants grown in a greenhouse. The cut leaf disks or segments are placed in multiwell plates (24-well format) onto water agar. The leaf disks are sprayed with a test solution before (preventative) or after (curative) inoculation. Compounds to be tested are prepared as DMSO solutions (max. 10 mg/ml) which are diluted to the appropriate concentration with 0.025% Tween20 just before spraying. The inoculated leaf disks or segments are incubated under defined conditions (temperature, relative humidity, light, etc.) according to the respective test system. A single evaluation of disease level is carried out 3 to 14 days after inoculation, depending on the pathosystem. Percent disease control relative to the untreated check leaf disks or segments is then calculated.
Wheat leaf segments cv. Kanzler are placed on agar in multiwell plates (24-well format). The leaf segments are inoculated with a spore suspension of the fungus. Plates are stored in darkness at 19° C. and 75% rh. The formulated test compound diluted in water is applied 1 day after inoculation. The leaf segments are incubated at 19° C. and 75% rh under a light regime of 12 h light/12 h darkness in a climate cabinet and the activity of a compound is assessed as percent disease control compared to untreated when an appropriate level of disease damage appears in untreated check leaf segments (6-8 days after application).

[3] = test system: Phakopsora pachyrhizi; test: Fungicidal activity against Phakopsora pachyrhizi / soybean / leaf disc preventative (Asian soybean rust); format: in vivo; conditions: foliar, soybean leaf disks, compared to untreated control
Procedure: as §1
Soybean leaf disks are placed on water agar in multiwell plates (24-well format) and sprayed with the formulated test compound diluted in water. One day after application leaf discs are inoculated by spraying a spore suspension on the lower leaf surface. After an incubation period in a climate cabinet of 24-36 hours in darkness at 20° C. and 75% rh leaf disc are kept at 20° C. with 12 h light/day and 75% rh. The activity of a compound is assessed as percent disease control compared to untreated when an appropriate level of disease damage appears in untreated check leaf disks (12-14 days after application).

[4] = test system: Puccinia recondita f. sp. tritici; test: Fungicidal activity against Puccinia recondita f. sp. tritici / wheat / leaf disc preventative (brown rust); format: in vivo; conditions: foliar, wheat leaf segments, preventative (inoculated 1 day after application), compared to untreated control
Procedure: as §1
Wheat leaf segments cv. Kanzler are placed on agar in multiwell plates (24-well format) and sprayed with the formulated test compound diluted in water. The leaf disks are inoculated with a spore suspension of the fungus 1 day after application. The inoculated leaf segments are incubated at 19° C. and 75% rh under a light regime of 12 h light/12 h darkness in a climate cabinet and the activity of a compound is assessed as percent disease control compared to untreated when an appropriate level of disease damage appears in untreated check leaf segments (7-9 days after application).

Row | melting point | SMILES | inhibition of growth at 20 ppm [1] | pest or weed control at 200 ppm [2] | pest or weed control at 200 ppm [3] | pest or weed control at 200 ppm [4]
1 |  | O=S1(=O)C=CCN1Cc1ccc(-c2noc(C(F)(F)F)n2)cc1 [Compound A-1, 2-[[4-[5-(trifluoromethyl)-1,2,4-oxadiazol-3-yl]phenyl]methyl]-3H-isothiazole 1,1-dioxide] | ≥ 80% | ≥ 80% | ≥ 80% | ≥ 80%
2 |  | CC(=O)n1ccc(=O)n1Cc1ccc(-c2noc(C(F)(F)F)n2)cc1 [Compound A-2, 1-acetyl-2-[[4-[5-(trifluoromethyl)-1,2,4-oxadiazol-3-yl]phenyl]methyl]pyrazol-3-one] | ≥ 80% | ≥ 80% | ≥ 80% | ≥ 80%
3 |  | COc1c(-c2c(C)cc(C)cc2C)c(=O)n(Cc2ccc(-c3noc(C(F)(F)F)n3)cc2)n1C [Compound A-3, 5-methoxy-1-methyl-2-[[4-[5-(trifluoromethyl)-1,2,4-oxadiazol-3-yl]phenyl]methyl]-4-(2,4,6-trimethylphenyl)pyrazol-3-one] | ≥ 80% |  | ≥ 80% | 
4 |  | O=c1ccn(-c2ccc(Cl)cc2)n1Cc1ccc(-c2noc(C(F)(F)F)n2)cc1 [Compound A-4, 1-(4-chlorophenyl)-2-[[4-[5-(trifluoromethyl)-1,2,4-oxadiazol-3-yl]phenyl]methyl]pyrazol-3-one] |  |  | ≥ 80% | ≥ 80%
5 |  | CC(c1ccc(-c2noc(C(F)(F)F)n2)cc1)n1nnn(C)c1=O (centres unmarked) [Compound B-1, 1-methyl-4-[1-[4-[5-(trifluoromethyl)-1,2,4-oxadiazol-3-yl]phenyl]ethyl]tetrazol-5-one] | ≥ 80% | ≥ 80% | ≥ 80% | ≥ 80%
6 | 111.1 to 114 °C | O=c1sc(-c2ccccc2)nn1Cc1ccc(-c2noc(C(F)(F)F)n2)cc1 [Compound B-2, 5-phenyl-3-[[4-[5-(trifluoromethyl)-1,2,4-oxadiazol-3-yl]phenyl]methyl]-1,3,4-thiadiazol-2-one] | ≥ 80% |  |  | 
7 | 133.8 to 136 °C | Cc1nn(Cc2ccc(-c3noc(C(F)(F)F)n3)cc2)c(=O)o1 [Compound B-3, 5-methyl-3-[[4-[5-(trifluoromethyl)-1,2,4-oxadiazol-3-yl]phenyl]methyl]-1,3,4-oxadiazol-2-one] | ≥ 80% | ≥ 80% | ≥ 80% | ≥ 80%
8 | 129 to 130.8 °C | COc1nn(Cc2ccc(-c3noc(C(F)(F)F)n3)cc2)c(=O)n1C [Compound B-4, 5-methoxy-4-methyl-2-[[4-[5-(trifluoromethyl)-1,2,4-oxadiazol-3-yl]phenyl]methyl]-1,2,4-triazol-3-one] | ≥ 80% | ≥ 80% | ≥ 80% | ≥ 80%
9 |  | Cn1nnn(Cc2ccc(-c3noc(C(F)(F)F)n3)c(F)c2)c1=O [Compound B-5, 1-[[3-fluoro-4-[5-(trifluoromethyl)-1,2,4-oxadiazol-3-yl]phenyl]methyl]-4-methyl-tetrazol-5-one] | ≥ 80% | ≥ 80% | ≥ 80% | ≥ 80%
10 | 104 to 106 °C | Cn1nnn(Cc2ccc(-c3noc(C(F)(F)F)n3)cc2)c1=O [Compound B-6, 1-methyl-4-[[4-[5-(trifluoromethyl)-1,2,4-oxadiazol-3-yl]phenyl]methyl]tetrazol-5-one] | ≥ 80% | ≥ 80% | ≥ 80% | ≥ 80%
11 |  | CC1=CC(C)C(=O)N1Cc1ccc(-c2noc(C(F)(F)F)n2)cc1 (centres unmarked) [Compound B-7, 3,5-dimethyl-1-[[4-[5-(trifluoromethyl)-1,2,4-oxadiazol-3-yl]phenyl]methyl]-3H-pyrrol-2-one] | ≥ 80% |  | ≥ 80% | ≥ 80%
12 | 117 to 120 °C | Cc1ccn(C(C)c2ccc(-c3noc(C(F)(F)F)n3)cc2)c(=O)c1 (centres unmarked) [Compound C-1] | ≥ 80% | ≥ 80% | ≥ 80% | ≥ 80%
13 | 106.5 to 107.6 °C | O=c1ccc(Br)nn1Cc1ccc(-c2noc(C(F)(F)F)n2)cc1 [Compound C-2, 6-bromo-2-[[4-[5-(trifluoromethyl)-1,2,4-oxadiazol-3-yl]phenyl]methyl]pyridazin-3-one] | ≥ 80% | ≥ 80% | ≥ 80% | ≥ 80%
14 |  | Cc1cc(C)n(Cc2ccc(-c3noc(C(F)(F)F)n3)cc2)c(=O)c1 [Compound C-3, 4,6-dimethyl-1-[[4-[5-(trifluoromethyl)-1,2,4-oxadiazol-3-yl]phenyl]methyl]pyridin-2-one] |  | ≥ 80% |  | 
15 | 88 to 90 °C | Cc1cccc(=O)n1Cc1ccc(-c2noc(C(F)(F)F)n2)cc1 [Compound C-4, 6-methyl-1-[[4-[5-(trifluoromethyl)-1,2,4-oxadiazol-3-yl]phenyl]methyl]pyridin-2-one] | ≥ 80% | ≥ 80% | ≥ 80% | ≥ 80%
16 |  | Cc1cccc(=O)n1Cc1cc(F)c(-c2noc(C(F)(F)F)n2)cc1F [Compound C-15, 1-[[2,5-difiuoro-4-[5-(trifluoromethyl)-1,2,4-oxadiazol-3-yl]phenyl]methyl]-6-methyl-pyridin-2-one] | ≥ 80% | ≥ 80% | ≥ 80% | ≥ 80%
17 |  | Cc1cccc(=O)n1C(C)c1ccc(-c2noc(C(F)(F)F)n2)cc1 (centres unmarked) [Compound C-16, 6-methyl-1-[1-[4-[5-(trifluoromethyl)-1,2,4-oxadiazol-3-yl]phenyl]ethyl]pyridin-2-one] | ≥ 80% | ≥ 80% |  | ≥ 80%
18 |  | Cc1cccc(=O)n1Cc1cc(F)c(-c2noc(C(F)(F)F)n2)c(F)c1 [Compound C-17, 1-[[3,5-difluoro-4-[5-(trifluoromethyl)-1,2,4-oxadiazol-3-yl]phenyl]methyl]-6-methyl-pyridin-2-one] | ≥ 80% | ≥ 80% |  | ≥ 80%
19 | 146 to 148 °C | Cc1ccn(CCc2ccc(-c3noc(C(F)(F)F)n3)cc2)c(=O)c1 [Compound C-18, 4-methyl-1-[2-[4-[5-(trifluoromethyl)-1,2,4-oxadiazol-3-yl]phenyl]ethyl]pyridin-2-one] | ≥ 80% | ≥ 80% |  | ≥ 80%
20 | 139.5 to 140 °C | O=C1OCC(c2ccc(Cl)cc2Cl)=NN1Cc1ccc(-c2noc(C(F)(F)F)n2)cc1 [Compound E-1, 5-(2,4-dichlorophenyl)-3-[[4-[5-(trifluoromethyl)-1,2,4-oxadiazol-3-yl]phenyl]methyl]-6H-1,3,4-oxadiazin-2-one] |  |  |  | 
21 | 161 to 167 °C | Cn1nc(Cl)n(-c2ccc(-c3noc(C(F)(F)F)n3)cc2)c1=O [Compound F-1, 5-chloro-2-methyl-4-[4-[5-(trifluoromethyl)-1,2,4-oxadiazol-3-yl]phenyl]-1,2,4-triazol-3-one] | ≥ 80% |  |  | ≥ 80%
